Test results as given in patent US20160100574A1, “Antimicrobial Compositions Comprising Glyceryl Ethers” (SYMRISE AG, priority 2013, published 2016).
Each block holds one molecule with its values, some of them ahead of it.

How the values were obtained:
Assay type in all cases: cell-based
[1] = system: Pseudomonas aeruginosa; assay: Minimum inhibitory concentration according to DIN 58940, Pseudomonas aeruginosa; conditions: Pseudomonas aeruginosa, single antimicrobial agents
Excerpt: (§1) In order to calculate the Synergy Index SI with MIC values, the Kull equation is used as follows:
(§2) SI=(MICmixture×PA)/MICA+(MICmixture×PB)/MICB (II)
(§3) where SI is the Synergy Index according to Kull^1), 2) MICA is the MIC value for substance A MICB is the MIC value for substance B MICmixture is the MIC value for the mixture of substances A and B PA is the proportion of the substance A in the mixture PB is the proportion of the substance B in the mixture. b) Mixtures containing 3 components
(§4) SI=(MICmixture×PA)/MICA+(MICmixture×PB)/MICB+(MICmixture×PC)/MICC
(§5) where SI is the Synergy Index according to Kull^1), 2) MICA is the MIC value for substance A MICB is the MIC value for substance B MICC is the MIC value for substance C MICmixture is the MIC value for the mixture of substances […] PA is the proportion of the substance A in the mixture PB is the proportion of the substance B in the mixture. PC is the proportion of the substance C in the mixture.

[2] = system: Candida albicans; assay: Minimum inhibitory concentration according to DIN 58940, Candida albicans; conditions: Candida albicans, single antimicrobial agents
Excerpt: as §1, §2, §3, §4, §5

[3] = system: A. brasiliensis; assay: Challenge test / synergy (Kull equation), A. brasiliensis
Method: (§6) 1% b.w. of heptylglycerin, benzylglycerin and phenylpropylglycerin, respectively was added to an aqueous emulsion of Glyceryl stearyl citrate (Dracorin CE). The formulations were tested in standard challenge tests against various micro-organisms.
To calculate the synergism between compounds of formula (I) and other antimicrobial actives, the Kull equation^1 2 was used
SI=(Cmixture×PA)/CA+(Cmixture×PB)/CB (I)
where SI is the Synergy Index according to Kull^1), 2) CA is the cell count for substance A CB is the cell count for substance B Cmixture is the cell count for the mixture of substances A and B PA is the proportion of the substance A in the mixture PB is the proportion of the substance B in the mixture. ^1 Kull, F. C., Eismann, P. C., Sylvestrowicz, H. D., and R. L. Mayer (1961). Mixtures of Quaternary Ammonium Compounds and Long-chain Fatty Acids as Antifungal Agents. Applied Microbiology 9, 538-541.^2 Steinberg, D.C. (2000). Measuring Synergy. Cosmetics & Toiletries 115 (11), 59-62.
Colony counts of <100 were arbitrarily set to 100, in order to allow for synergy calculations with the above equation. The abbreviation “n.a.” means not applicable.

[4] = system: P. aeruginosa; assay: Challenge test of preserved emulsion, P. aeruginosa
Method: as §6, with “micro-organisms. The results are shown in Table 1 and indicate the high activity of the actives against yeast and bacteria, but not against mould.” for “micro-organisms.”

[5] = system: Escherichia coli; assay: Minimum inhibitory concentration according to DIN 58940, Escherichia coli; conditions: Escherichia coli, single antimicrobial agents, read-out: MIC values E. coli
Excerpt: as §1, §2, §3, §4, §5

[6] = system: E. coli; assay: Challenge test of preserved emulsion, E. coli
Method: as §6, with “micro-organisms. The results are shown in Table 1 and indicate the high activity of the actives against yeast and bacteria, but not against mould.” for “micro-organisms.”

[7] = system: Aspergillus brasiliensis; assay: Minimum inhibitory concentration according to DIN 58940, Aspergillus brasiliensis; conditions: Aspergillus brasiliensis, single antimicrobial agents
Excerpt: as §1, §2, §3, §4, §5

[8] = system: C. albicans; assay: Challenge test of preserved emulsion, C. albicans
Method: as §6, with “micro-organisms. The results are shown in Table 1 and indicate the high activity of the actives against yeast and bacteria, but not against mould.” for “micro-organisms.”

[9] = system: Staphylococcus aureus; assay: Minimum inhibitory concentration according to DIN 58940, Staphylococcus aureus; conditions: Staphylococcus aureus, single antimicrobial agents
Excerpt: as §1, §2, §3, §4, §5

[10] = system: S. aureus; assay: Challenge test of preserved emulsion, S. aureus
Method: as §6, with “micro-organisms. The results are shown in Table 1 and indicate the high activity of the actives against yeast and bacteria, but not against mould.” for “micro-organisms.”

[11] = Day 0, 1% b.w. active in aqueous emulsion of Glyceryl stearyl citrate (Dracorin CE)
[12] = Day 2, 1% b.w. active in aqueous emulsion of Glyceryl stearyl citrate (Dracorin CE)
[13] = Day 14, 1% b.w. active in aqueous emulsion of Glyceryl stearyl citrate (Dracorin CE)
[14] = Day 28, 1% b.w. active in aqueous emulsion of Glyceryl stearyl citrate (Dracorin CE)
[15] = Day 7, 1% b.w. active in aqueous emulsion of Glyceryl stearyl citrate (Dracorin CE)

- MIC [1]: 5000 µg/mL
- MIC [2]: 2000 µg/mL
- MIC [5]: 2000 µg/mL
- MIC [7]: 1000 µg/mL
- MIC [9]: 2500 µg/mL
Compound: CCCCCCCOCC(O)CO (stereo not drawn) [Heptylglycerin]
- colony counts Day 0 [3, 11]: 220.000 cfu/g formulation
- colony counts Day 2 [3, 12]: 320.000 cfu/g formulation
- colony counts Day 14 [3, 13]: 300.000 cfu/g formulation
- colony counts Day 28 [3, 14]: 170.000 cfu/g formulation
- Colony counts day 0 ([3]; Table 3, day 0, 1.0% total active): 220.000 cfu/g formulation
- Relative colony counts day 0 ([3]; Table 3, day 0, relative to day 0, 1.0% total active): 1.0000
- Colony counts day 2 ([3]; Table 3, day 2, 1.0% total active): 320.000 cfu/g formulation
- Relative colony counts day 2 ([3]; Table 3, day 2, relative to day 0, 1.0% total active): 1.4545
- Colony counts day 7 ([3]; Table 3, day 7, 1.0% total active): 340.000 cfu/g formulation
- Relative colony counts day 7 ([3]; Table 3, day 7, relative to day 0, 1.0% total active): 1.5455
- Colony counts day 14 ([3]; Table 3, day 14, 1.0% total active): 300.000 cfu/g formulation
- Relative colony counts day 14 ([3]; Table 3, day 14, relative to day 0, 1.0% total active): 1.3636
- Colony counts day 28 ([3]; Table 3, day 28, 1.0% total active): 170.000 cfu/g formulation
- Relative colony counts day 28 ([3]; Table 3, day 28, relative to day 0, <100 set to 100, 1.0% total active): 0.7727
- colony counts Day 0 [4, 11]: 250.000 cfu/g formulation
- colony counts Day 2 [4, 12]: 0 cfu/g formulation
- colony counts Day 7 [4, 15]: 0 cfu/g formulation
- colony counts Day 14 [4, 13]: 0 cfu/g formulation
- colony counts Day 28 [4, 14]: 0 cfu/g formulation
- colony counts Day 0 [6, 11]: 210.000 cfu/g formulation
- colony counts Day 2 [6, 12]: 0 cfu/g formulation
- colony counts Day 7 [6, 15]: 0 cfu/g formulation
- colony counts Day 14 [6, 13]: 0 cfu/g formulation
- colony counts Day 28 [6, 14]: 0 cfu/g formulation
- colony counts Day 2 [8, 12]: <100 cfu/g formulation
- colony counts Day 7 [8, 15]: 0 cfu/g formulation
- colony counts Day 14 [8, 13]: 0 cfu/g formulation
- colony counts Day 28 [8, 14]: 0 cfu/g formulation
- colony counts Day 0 [10, 11]: 230.000 cfu/g formulation
- colony counts Day 2 [10, 12]: 0 cfu/g formulation
- colony counts Day 7 [10, 15]: 0 cfu/g formulation
- colony counts Day 14 [10, 13]: 0 cfu/g formulation
- colony counts Day 28 [10, 14]: 0 cfu/g formulation

- MIC [1]: > 2000 µg/mL
- MIC [2]: 1000 µg/mL
- MIC [5]: 1000 µg/mL
- MIC [7]: 500 µg/mL
- MIC [9]: 1000 µg/mL
Compound: CCCCCCCCOCC(O)CO (stereo not drawn) [Octylglycerin]

- MIC [1]: 6000 µg/mL
- MIC [2]: 6000 µg/mL
- MIC [5]: 4000 µg/mL
- MIC [7]: 4000 µg/mL
- MIC [9]: 6000 µg/mL
Compound: CCCCCCOCC(O)CO (stereo not drawn) [Hexylglycerin]
